# How the values were obtained:
# adult subjects with TRD = details: post dose
# Procedure: The MOAA/S was used to measure treatment-emergent sedation, with correlation to levels of sedation defined by the American Society of Anesthesiologists (ASA) continuum. The MOAA/S scores range from 0=no response to painful stimulus (corresponds to ASA continuum for general anesthesia) to 5=readily responds to name spoken in normal tone (awake; corresponds to ASA continuum for minimal sedation).
# On each intranasal dosing day, the MOAA/S was performed every 15 minutes from pre-dose to t=+1.5 hours post-dose. If the score was ≤3 at any time during the 1.5 hours post-dose interval, the MOAA/S was performed every 5 minutes until a score of 4 is reached (at which point a frequency of every 15 minutes can be resumed until t=+1.5 hours post dose). […] For subjects with a score of 4, the assessment was repeated every 15 minutes. […]
# The Modified Observer's Assessment of Alertness/Sedation (MOAA/S) was used to measure treatment-emergent sedation with correlation to levels of sedation defined by the American Society of Anesthesiologists (ASA) continuum. The MOAA/S scores ranged from 0 (No response to painful stimulus; corresponds to ASA continuum for general anesthesia) to 5 (Readily responds to name spoken in normal tone [awake]; corresponding to ASA continuum for minimal sedation).
# patients with TRD = experiment: Adverse reactions in SPRAVATO clinical trials (label); format: in vivo, human; details: up to 4 weeks after cessation of treatment
# Procedure: SPRAVATO was evaluated for safety in 1709 patients diagnosed with treatment resistant depression (TRD) [see Clinical Studies (14.1, 14.2)] from five Phase 3 studies (3 short-term and 2 long-term studies) and one Phase 2 dose-ranging study. Of all SPRAVATO-treated patients in the completed Phase 3 studies, 479 (30%) received at least 6 months of treatment, and 178 (11%) received at least 12 months of treatment.
# In short-term studies in adults<65 years old (Study 1 pooled with another 4-week study), the proportion of patients who discontinued treatment because of an adverse reaction was 4.6% in patients who received SPRAVATO plus oral AD compared to 1.4% for patients who received placebo nasal spray plus oral AD. For adults 65 years old, the proportions were 5.6% and 3.1%, respectively. In Study 2, a long-term maintenance study, the discontinuation rates because of an adverse reaction were similar for patients receiving SPRAVATO plus oral AD and placebo nasal spray plus oral AD in the maintenance phase, at 2.6% and 2.1%, respectively.
# SPRAVATO can cause nausea and vomiting (Table 7). Most of these events occurred on the day of dosing and resolved the same day, with the median duration not exceeding 1 hour in most subjects across dosing sessions. […]
# [1] = test system: subjects with MDD at imminent risk for suicide; experiment: Beck Scale for Suicidal Ideation (BSS) ([…]2001); format: in vivo, human
# Procedure: The BSS is a 21-item self-reported instrument to detect and measure the severity of suicidal ideation in adults and adolescents aged 17 years and older. The BSS total score represents the severity of suicide ideation, and it is calculated by summing the ratings of the first 19 items; the total score ranges from 0 to 38, with a higher score representing greater suicide ideation. Increasing scores reflect increases in suicidal risk.
# Protein binding = format: in vitro ADME
# Source text: Protein binding of esketamine was approximately 43% to 45%.
# [2] = test system: elderly subjects with TRD; details: post dose
# Procedure: The Clinician Administered Dissociative States Scale (CADSS) was measured prior to the start of each dose, at 40 minutes, and 1.5 hours postdose.
# [3] = test system: transgenic (Tg.rasH2) mice; experiment: 6-month study in transgenic (Tg.rasH2) mice; format: in vivo, mouse; details: once-daily subcutaneous up to 75 mg/kg/day (reduced to 40 mg/kg/day during week 17); 6 months
# [4] = test system: patients with treatment-resistant depression (TRD); experiment: MADRS total score, response and remission (Example 7, phase 2 dose-response study); format: in vivo, human; details: for MADRS: treatment difference relative to placebo: day 15, completers, same treatment 2 weeks; for MADRS: LS mean difference vs placebo, range over dose groups: 28, 56, 84 mg
# Procedure: At the beginning of double-blind Period 1, eligible participants were randomized (3:1:1:1) to intranasal placebo or esketamine 28, 56, or 84 mg, twice weekly (days 1 and 4) based on the first of two computer-generated randomization schedules (Period 1 and Period 2). Randomization was balanced by using randomly permuted blocks and stratified by study center. At the end of Period 1, those randomized to placebo who had moderate-to-severe symptoms (assessed by Quick Inventory of Depressive Symptomatology-Self Report (Trivedi 2016 and Rush, “The 16-item Quick Inventory of Depressive Symptomatology (QIDS) Clinician Rating (QIDS-C) and Self-Report (QIDS-SR): A psychometric evaluation in patients with chronic major depression”, Biol. Psychiatry, 2003, 54(5):573-583) [QIDS-SR16] total score: moderate, 11-16; severe, >16) were re-randomized (1:1:1:1) to intranasal esketamine 28, 56, or 84 mg or placebo, twice weekly (days 8 and 11), while those having mild or no symptoms continued on placebo. To maintain the blind, all participants completed an identical process prior to entry into Period 2, whether or not they were re-randomized. Regardless of response in the double-blind phase, all participants were eligible to enter the optional open-label phase. Esketamine (56 mg) was administered on the first day of the open-label phase (study day 15); subsequent doses could be adjusted (range: 28 to 84 mg) based on investigator's clinical judgment, with administration twice weekly for first 2 weeks, weekly for next 3 weeks, then every 2 weeks thereafter.
# Efficacy was assessed with the Montgomery-Asberg Depression Rating Scale (MADRS; Montgomery, “A new depression scale designed to be sensitive to change”, Br. J. Psychiatry, 1979, 134:382-389; Williams, “Development and reliability of a structured interview guide for the Montgomery Asberg Depression Rating Scale (SIGMA)”, Br. J. Psychiatry, 2008, 192(1):52-58) on days 1 (pre-dose and 2 hour post-dose), 2, 8 (pre-dose), 9, and 15, using the structured interview guide (SIGMA). See, Williams 2008.
# The primary efficacy endpoint—change from baseline (pre-dose, day 1 in each period) to endpoint (day 8 in each period) in MADRS total score—was analyzed using the analysis of covariance (ANCOVA) model. For Period 1, the model included treatment and country as factors, and baseline MADRS total score as covariate. For Period 2, the model included treatment and country as factors, Period 2 baseline QIDS-SR16 score (moderate or severe), and Period 2 baseline MADRS total score as a continuous covariate.
# Given the consistency between Periods 1 and 2 results (Chi 2016), esketamine dose groups were compared to placebo using a combined test on the weighted test statistics for each period in the double-blind treatment phase. A dose-response analysis on primary efficacy endpoint was performed using data combined from both periods. The Multiple Comparison Procedure—Modelling (MCP-Mod) methodology was performed (Williams 2008; Bretz, “Combining multiple comparisons and modeling techniques in dose-response studies”, Biometrics, 2005, 61:738-748).
# [5] = esketamine 84 mg minus placebo, ANCOVA LOCF
# [6] = esketamine 84 mg, LOCF, ITT, N = 34
# [7] = esketamine 84 mg, LOCF, ITT, N = 34, negative change = improvement
# [8] = esketamine 84 mg, predose Day 1, ITT, N = 34
# [9] = OL endpoint - day 74, Placebo/Esketamine/OL Esketamine
# [10] = Period 1, study period endpoint, esketamine 28 mg
# [11] = Period 2, 2 hours, esketamine 84 mg
# [12] = Period 2, 24 hours, esketamine 84 mg
# [13] = Period 2, study period endpoint, esketamine 84 mg
# [14] = Week 8 (Follow-up), Placebo/Esketamine/OL Esketamine
smiles,measurement,setting,value
"CN[C@]1(c2ccccc2Cl)CCCCC1=O [esketamine, (S)-2-(2-chlorophenyl)-2-(methylamino)cyclohexanone]",Sedation (MOAA/S) resolved by,adult subjects with TRD,≤ 1.5 h
same,Withdrawal symptoms,patients with TRD,no withdrawal symptoms
same,BSS total score: change vs placebo,"[1]; 84 mg, Day 1: 4-hours postdose, Day 2 (DB), End Point (DB)",no statistically significant differences
same,"BSS total score, change to Day 1 (DB): 4H, Diff. of LS Means (SE)",[1]; [5],−2.3 (2.29)
same,"BSS total score, change to Day 2 (DB), Diff. of LS Means (SE)",[1]; [5],−1.9 (2.30)
same,"BSS total score, change to End Point (DB), Diff. of LS Means (SE)",[1]; [5],−1.7 (2.15)
same,"BSS total score, Day 2 (DB), Median (Range)",[1]; [6],13.0 (0; 34)
same,"BSS total score, End Point (DB), Mean (SD)",[1]; [6],4.7 (9.03)
same,"BSS total score, End Point (DB), Median (Range)",[1]; [6],0.0 (0; 34)
same,"BSS total score, Change from Baseline to Day 1 (DB): 4H, Median (Range)",[1]; [7],−8.0 (−33; 8)
same,"BSS total score, Change from Baseline to End Point (DB), Median (Range)",[1]; [7],−21.0 (−33; 8)
same,"BSS total score, Baseline (DB), Mean (SD)",[1]; [8],24.0 (5.45)
same,"BSS total score, Baseline (DB), Median (Range)",[1]; [8],25.0 (8; 33)
same,fraction unbound,Protein binding,0.55 to 0.57
same,Dissociative and perceptual change symptoms (CADSS) resolved by,[2],≤ 1.5 h
same,Incidence of tumors,[3],did not increase the incidence of tumors
same,MADRS: treatment difference relative to placebo,[4]; 28 mg,−6.0
same,MADRS: treatment difference relative to placebo,[4]; 56 mg,−8.3
same,Proportion of responders (MADRS),"[4]; 84 mg, Period 2 endpoint",50.0%
same,Remitted (MADRS),"[4]; 84 mg, after 2 weeks of treatment",40.0%
same,"MADRS response (≥50% improvement), %",[4]; [9],50.0%
same,"Remission (MADRS ≤10): No, %",[4]; [9],60.0%
same,"Remission (MADRS ≤10): Yes, %",[4]; [9],40.0%
same,"MADRS response (≥50% improvement), %","[4]; OL endpoint - day 74, Placebo/Placebo/OL Esketamine",100%
same,"MADRS Remitters, %","[4]; Period 1, 2 hours, esketamine 84 mg",(25.0) %
same,"MADRS Remitters, %","[4]; Period 1, 24 hours, esketamine 84 mg",(25.0) %
same,"MADRS Remitters, %",[4]; [10],(9.1) %
same,"MADRS Responders, %",[4]; [10],(9.1) %
same,"MADRS Remitters, %","[4]; Period 1, study period endpoint, esketamine 56 mg",(9.1) %
same,"MADRS Remitters, %","[4]; Period 1, study period endpoint, esketamine 84 mg",(25.0) %
same,"MADRS: LS mean difference vs placebo, range over dose groups",[4]; Period 1,−5.0 to −10.5
same,"MADRS Remitters, %",[4]; [11],(40.0) %
same,"MADRS Responders, %",[4]; [11],(40.0) %
same,"MADRS Remitters, %",[4]; [12],(20.0) %
same,"MADRS Responders, %",[4]; [12],(40.0) %
same,"MADRS Remitters, %",[4]; [13],(20.0) %
same,"MADRS Responders, %",[4]; [13],(20.0) %
same,"MADRS: LS mean difference vs placebo, range over dose groups",[4]; Period 2,−3.1 to −6.9
same,"MADRS response (≥50% improvement), %",[4]; [14],25.0%
same,"Remission (MADRS ≤10): No, %",[4]; [14],75.0%
same,"Remission (MADRS ≤10): Yes, %",[4]; [14],25.0%

# From patent US11980596B2 (priority 2017, dated 2024)
